Values of other authors, collected in patent US20230111712A1, “STABLE REACTIVE COMPOSITIONS FOR BIOCONJUGATION, PROBES, AND PROTEIN LABELING” (ARIZONA BOARD OF REGENTS ON BEHALF OF THE UNIVERSITY OF …, priority 2020, published 2023).

Details: reported value

## CCCN [propyl ammonium, propyl amine]
  pKa: 10.5
